The text below walks through data of patent USRE38604E1, “Fluid therapy with L-lactate and/or pyruvate anions” (BTG International Limited, priority 1984, dated 2004).

SMILES strings stand for the structures.

For series [1] the following is noted: patient undergoing continuous cyclic peritoneal dialysis; severe recurrent metabolic alkalemia secondary to it; cited from earlier work.
The next series has as its system brain tissue. The following applies: rat, aqueous 20 mM/l, parenteral.

`CC(O)C(=O)O` (racemic) [d,l-lactate]: the “adverse effect of inclusion in routine dialysis fluids” value in series [1] is on record as “encephalopathy”.

As to `C[C@@H](O)C(=O)O` [d-lactate], in the series with brain tissue, the “effect on brain tissue” value is “swelling of brain tissue is observed”; the “outcome with continued administration (coma, cerebral edema, death)” value was “coma develops, the cerebral edema worsens and death ensues”.

On to `C[C@H](O)C(=O)O` [l-lactate], for which, in the series with brain tissue, the “outcome with continued administration (coma, cerebral edema, death)” value was “does not cause coma or death”.
